# Assay results taken from US20240207288A1, “METHODS OF TREATING ESOPHAGEAL STRICTURES” (Ellodi Pharmaceuticals, L.P., priority 2021, published 2024).
# Tested on: subjects with strictures and/or rings and EoE
# Assay: Clinical trial of FP ODT: endoscopy (EREFS, strictures, rings)
# Format: in vivo, human
# Details: for Stricture and Grade 2 Rings at Week 12, % / Stricture at Week 12, % / Stricture or Grade 2 Rings at Week 12, % / Subjects with new strictures and/or rings at Week 12, % / Endoscopy Responder Rate (overall EFEFS score ≤4), %: subgroup with strictures and/or Grade 2 rings at baseline; for Endoscopy Responder Rate (overall EFEFS score ≤4), %: Week 12
# Source text: In some embodiments, the strictures and/or rings are diagnosed using EoE Endoscopic Reference Score (EREFS), which measures edema (e.g., decreased vascularity or pallot), rings present, exudates (e.g., white plaques), furrows, and/or stricture in the esophagus according to Table 1. In embodiments, the patient also has a grade 2 or grade 3 ring.
# In some embodiments, the methods of the present disclosure cause an improvement in a patient's EoE Endoscopic Reference score (EREFS). The EREFS identifies the severity of five endoscopic findings: edema, rings, exudates, furrows, and strictures. The EREFS classification system rates the severity of each of the endoscopic findings. The severity of edema is rated on a scale from 0 to 2. The severity of rings is rated from 0 to 3. The severity of exudates is rated from 0 to 2. The severity of furrows is rated from 0 to 2. The severity of strictures is rated from 0 to 1. The absence of a finding corresponds to a score of 0. The presence of a finding corresponds to a score of 1, 2, or 3. A higher score is correlated with higher severity. In some embodiments, the composite EREFS score, or the sum of the individual scores, is utilized to indicate the severity of EoE. In some embodiments, the inflammatory EREFS score, or the sum of the individual edeme, exudate, and furrows score, is utilized to indicate the severity of EoE. In some embodiments, a higher inflammatory or composite EREFS score corresponds to the severity of EoE. In some embodiments, the inflammatory or composite EREFS score decreases after treatment with a corticosteroid according to the methods of the disclosure. In some embodiments the inflammatory or composite EREFS score decreases by 0.1, or about 0.2, or about 0.3, or about 0.4, or about 0.5, or about 0.6, or about 0.7, or about 0.8, or about 0.9, or about 1.0, or about 1.1, or about 1.2, or about 1.3, or about 1.4, or about 1.5, or about 1.6, or about 1.7, or about 1.8, or about 1.9, or about 2.0, or about 2.1, or about 2.2, or about 2.3, or about 2.4, or about 2.5, or about 2.6, or about 2.7, or about 2.8, or about 2.9, or about 3.0, or about 3.1, or about 3.2, or about 3.3, or about 3.4, or about 3.5, or about 3.6, or about 3.7, or about 3.8, or about 3.9, or about 4.0, or about 4.1, or about 4.2, or about 4.3, or about 4.4, or about 4.5, or about 4.6, or about 4.7, or about 4.8, or about 4.9, or about 5.0, or about 5.1, or about 5.2, or about 5.3, or about 5.4, or about 5.5, or about 5.6, or about 5.7, or about 5.8, or about 5.9, or about 6.0, or about 6.1, or about 6.2, or about 6.3, or about 6.4, or about 6.5, or about 6.6, or about 6.7, or about 6.8, or about 6.9, or about 7.0, or about 7.1, or about 7.2, or about 7.3, or about 7.4, or about 7.5, or about 7.6, or about 7.7, or about 7.8, or about 7.9, or about 8.0, or about 8.1, or about 8.2, or about 8.3, or about 8.4, or about 8.5, or about 8.6, or about 8.7, or about 8.8, or about 8.9, or about 9.0, or about 9.1, or about 9.2, or about 9.3, or about 9.4, or about 9.5, or about 9.6, or about 9.7, or about 9.8, or about 9.9, or about 10.0 points, or more, inclusive of all ranges between these values. In some embodiments, the EREFS score decreases by 1%, or 5%, or 10%, or 15%, or 20%, or 25%, or 30%, or 35%, or 40%, or 45%, or 50%, or 55%, or 60%, or 65%, or 70%, or 75%, or 80%, or 85%, or 90%, or 95% or more, inclusive of all ranges between these values. The following article, incorporated by reference in its entirety herein, describes the EREFS score: Wechsler, Clin Hepatol. 2018 July; 16(7): 1056-1063.
# A clinical trial was performed to evaluate the effect of an orally disintegrating tablet (“ODT”) comprising fluticasone propionate (FP). A randomised, double-blind, placebo-controlled, multicentre, dose-ranging, and maintenance study of FP in subjects (>18 and <75 years of age) with strictures and/or rings and EoE. […]
# [1] = all FP dosing groups, TOTAL (n = 43)
substance,measurement,setting,value
"S-(fluoromethyl)-6α,9-difluoro-11β, 17-dihydroxy-16α-methyl-3-oxoandrosta-1, 4-diene-17β-carbothioate, 17-propanoate [FP]","Stricture and Grade 2 Rings at Week 12, %",FP 1.5 mg BID (n = 12),0%
same,"Stricture at Week 12, %",FP 1.5 mg BID (n = 12),42%
same,"Stricture or Grade 2 Rings at Week 12, %",FP 1.5 mg BID (n = 12),50%
same,"Subjects with new strictures and/or rings at Week 12, %",FP 1.5 mg BID (n = 12),0%
same,"Endoscopy Responder Rate (overall EFEFS score ≤4), %",FP 1.5 mg BID (n = 12),92%
same,"Stricture and Grade 2 Rings at Week 12, %",FP 1.5 mg HS (n = 13),0%
same,"Stricture at Week 12, %",FP 1.5 mg HS (n = 13),8%
same,"Stricture or Grade 2 Rings at Week 12, %",FP 1.5 mg HS (n = 13),15%
same,"Subjects with new strictures and/or rings at Week 12, %",FP 1.5 mg HS (n = 13),0%
same,"Endoscopy Responder Rate (overall EFEFS score ≤4), %",FP 1.5 mg HS (n = 13),77%
same,"Stricture and Grade 2 Rings at Week 12, %",FP 3 mg BID (n = 7),0%
same,"Stricture at Week 12, %",FP 3 mg BID (n = 7),29%
same,"Stricture or Grade 2 Rings at Week 12, %",FP 3 mg BID (n = 7),29%
same,"Subjects with new strictures and/or rings at Week 12, %",FP 3 mg BID (n = 7),0%
same,"Endoscopy Responder Rate (overall EFEFS score ≤4), %",FP 3 mg BID (n = 7),86%
same,"Stricture and Grade 2 Rings at Week 12, %",FP 3 mg HS (n = 11),0%
same,"Stricture at Week 12, %",FP 3 mg HS (n = 11),9%
same,"Stricture or Grade 2 Rings at Week 12, %",FP 3 mg HS (n = 11),18%
same,"Subjects with new strictures and/or rings at Week 12, %",FP 3 mg HS (n = 11),0%
same,"Endoscopy Responder Rate (overall EFEFS score ≤4), %",FP 3 mg HS (n = 11),100%
same,"Stricture and Grade 2 Rings at Week 12, %",[1],0%
same,"Stricture at Week 12, %",[1],21%
same,"Stricture or Grade 2 Rings at Week 12, %",[1],28%
same,"Subjects with new strictures and/or rings at Week 12, %",[1],0%
same,"Endoscopy Responder Rate (overall EFEFS score ≤4), %",[1],88%
same,"Grade 2 Rings at Week 12, %","all FP dosing groups, subjects with stricture/rings at baseline",7%
same,Effect on strictures and/or grade 2 esophageal rings (post-hoc analysis),"patients with strictures and/or grade 2 esophageal rings at baseline, particularly the 3-mg HS dosing group",improvement or resolution of these features in most patients
